Measured values from US8350039B2, “Substituted isoquinoline derivatives, pharmaceutical compositions, and methods of use as beta-secretase inhibitors” (High Point Pharmaceuticals, LLC, priority 2009, dated 2013).

Legend:
BACE-1 enzyme = biological target: T1, BACE-1 enzyme (Homo sapiens, UniProt P56817); assay: BACE Fluorescence Resonance Energy Transfer (FRET) Assay; format: biochemical; settings: peptide substrate, pH 4-4.5, 30 min pre-incubation, 1.5 hours at room temperature
T1 construct: purchased R & D Systems 931AS
Protocol: BACE Fluorescence Resonance Energy Transfer (FRET) Assay
In the following assay, the proteolytic activity of BACE is measured by observing cleavage of a fluorescent group from a peptide substrate containing a rhodamine fluorescent donor and a quenching acceptor.
The inhibitory activity of compounds of Formula (I) may be compared to a statine derived control inhibitor STA200 (MP Biomedical Cat. #STA-200). The cleavage reaction occurs when a BACE-1 substrate (Invitrogen, Cat. #P2986) was added to a reaction mixture containing BACE-1 enzyme (R & D Systems, Cat. #931AS) and allowed to proceed for 1.5 hours. Fluorescence, used as a marker of BACE activity, is monitored using 540 nm excitation and 585 nm emission wavelengths (Envision, Perkin Elmer).
A typical assay reaction contains BACE-1 enzyme—in assay buffer (50 mM sodium acetate, pH 4-4.5, 0.01% CHAPS (3-[(3-Cholamidopropyl)dimethylammonio]-1-propanesulfonate), 0.0125% TritonX-100, 0.006% EDTA) which is pre-incubated for 30 minutes with test compound in 7.5% DMSO. The reaction is initiated with the addition of BACE-1 substrate in assay buffer and allowed to proceed for 1.5 hours at room temperature. Assays are conducted in black 384-well microtiter plates and scanned at room temperature using 540 nm excitation and 585 nm emission wavelengths.
A test compound's activity is reported as the IC50.

[1] = test system: HEK293 cells stably expressing wildtype human APP695 protein (HEK-APPwt cells); assay: Aβ Cell Based Assay (Aβ1-40 secretion, ELISA); settings: reduction of Aβ1-40 secretion from HEK-APPwt cells, 6 hours incubation, DAPT as 100% inhibition reference
Protocol: Aβ Cell Based Assay Procedure
In the following assay, the proteolytic activity of BACE in cells exposed to varying concentrations of a compound of interest is measured by observing the amount of Aβ1-40 secreted from HEK293 cells (Human Embryonic Kidney epithelial cell line) stably expressing wildtype human APP695 protein (HEK-APPwt cells).
HEK-APPwt cells were grown in high glucose DMEM (Dulbecco's Modified Eagles Medium SIGMA Cat. #D5796) supplemented with 25 mM HEPES (4-(2-hydroxyethyl)-1-piperazineethanesulfonic acid) (pH 7.4) (Invitrogen Cat. #15630-114), 0.1 mM NEAA (Non-essential Amino Acids) (BioWhittaker Cat. #13-114E), 10% fetal bovine serum (SIGMA Cat. #F4135) and 250 μg/mL hygromycin (Invitrogen Cat. #10687-010) in T-225 flasks at 37° C. with 5% CO2 and humidity control.
Test compounds were initially prepared in DMSO and diluted with DMEM media containing 2% FBS (Fetal bovine serum). Ten standard compound solutions were prepared having a range of concentrations. The standard compound solutions were used to determine the EC50 of the test compound. The range of concentrations chosen may depend on the compound's predicted potency.
To prepare the cells for the assay, a flask containing HEK-APPwt cells were trypsinized briefly (1 mL trypsin), and once the cells detached, 4 mL of 10% FBS-DMEM was added to the flask. The detached cells were centrifuged at 900 rpm for 5 min to form a pellet.
The HEK-APPwt cell pellet was re-suspended with 10 mL DMEM media containing 2% FBS. 80 μL of the cell suspension was added to each well of a 96-well cell culture plate to give 100×10^4 cells/mL. 10 μL of a standard compound solution was added to each well of the 96-well cell culture plate followed by 10 μL of Alamar blue solution. The cells were incubated at 37° C. in a 5% CO2 incubator for 6 hours.
At the end of the incubation, the plates were removed from incubator, and the supernatant was collected. Aβ1-40 concentration in the medium was measured by using a commercial Aβ1-X ELISA kit (IBL, Japan Cat. #27729). Briefly, the ELISA plates were coated with an anti-human Aβ (N)(82E1) mouse IgG monoclonal antibody. A horseradish peroxidase conjugated anti-human Aβ11-28 mouse IgG monoclonal antibody was used for detection. The cell culture supernatant was diluted with EIA buffer+protease inhibitors (kit buffer containing protease inhibitors (1 mL PI/30 mL buffer)). A 100 μL aliquot of the diluted supernatant was added to each well of the ELISA plate and incubated for 6 hrs at 4° C. The ELISA plate was washed 8 times with phosphate buffered saline (PBS) containing 0.05% Tween 20.
A 100 μL of detection antibody was then added and incubated for 1 hour at 4° C. The plate was washed 8 times with PBS buffer containing 0.05% Tween 20 followed by addition of 100 μL of the chromogen tetramethylbenzidine (TMB). The plate was incubated in the dark at room temperature for about 30 min and a stop solution (1N H2SO4) was added.
The intensity of the color developed was measured at 450 nm. The optical density at 450 nm (OD450) is proportional to the concentration of human Aβ1-40 secreted by the cell. As a reference, N—[N-(3,5-difluorophenacetyl-L-alanyl)]-S-phenylglycine t-butyl ester (DAPT, a γ-secretase inhibitor) was used to indicate 100% inhibition of BACE activity. Thus, the assay measures the ability of a compound of interest to reduce Aβ1-40 secretion. Compound potency was reported as the EC50 by calculating the percent inhibition at all concentration levels and the data were fit with non-linear curve fitting algorithm using in GraphPad Prism.

T1 sequence (P56817 46-457 limits assumed): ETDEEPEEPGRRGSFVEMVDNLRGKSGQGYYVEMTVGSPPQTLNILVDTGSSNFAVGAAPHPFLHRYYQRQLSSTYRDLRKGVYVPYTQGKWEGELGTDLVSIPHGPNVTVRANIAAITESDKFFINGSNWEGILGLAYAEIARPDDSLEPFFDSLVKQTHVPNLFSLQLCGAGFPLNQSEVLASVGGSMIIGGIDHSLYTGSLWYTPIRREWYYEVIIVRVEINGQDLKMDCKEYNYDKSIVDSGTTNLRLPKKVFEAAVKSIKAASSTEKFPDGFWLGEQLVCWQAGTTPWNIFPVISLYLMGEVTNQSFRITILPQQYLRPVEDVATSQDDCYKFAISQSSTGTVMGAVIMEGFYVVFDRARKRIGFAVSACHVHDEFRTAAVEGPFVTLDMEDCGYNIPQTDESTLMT

Row | SMILES | IC50 (BACE-1 enzyme) [µM] | EC50 [1] [µM]
1 | O=C(Nc1nc2cc(OCc3ccc(F)cc3F)ccc2[nH]1)c1cc2ccccc2cn1 [Example 5, Isoquinoline-3-carboxylic acid [5-(2,4-difluoro-benzyloxy)-1H-benzoimidazol-2-yl]-amide] | 0.86 | 1.2
2 | O=C(Nc1nc2cc(OCc3ccc(C(F)(F)F)cc3)ccc2[nH]1)c1cc2ccccc2cn1 [Example 3, Isoquinoline-3-carboxylic acid [5-(4-trifluoromethyl-benzyloxy)-1H-benzoimidazol-2-yl]-amide] | 0.95 | 0.55
3 | O=C(Nc1nc2cc(OCCCc3ccccc3)ccc2[nH]1)c1cc2ccccc2cn1 [Example 8, Isoquinoline-3-carboxylic acid [5-(3-phenyl-propoxy)-1H-benzoimidazol-2-yl]-amide] | 0.47 | 1.2
4 | O=C(Nc1nc2cc(N(Cc3ccccc3)Cc3ccccc3)ccc2[nH]1)c1cc2ccccc2cn1 [Example 12, Isoquinoline-3-carboxylic acid (5-dibenzylamino-1H-benzoimidazol-2-yl)-amide] | 0.38 | 2.3
5 | O=C(Nc1nc2cc(OCCC3CCCC3)ccc2[nH]1)c1cc2ccccc2cn1 [Example 6, Isoquinoline-3-carboxylic acid [5-(2-cyclopentyl-ethoxy)-1H-benzoimidazol-2-yl]-amide] | 0.26 | 0.16

Compounds with a lower IC50 (BACE-1 enzyme), results first:

Row | IC50 (BACE-1 enzyme) [µM] | SMILES | EC50 [1] [µM]
6 | 0.1 | O=C(Nc1nc2cc(N3CCC(c4ccccc4)CC3)ccc2[nH]1)c1cc2ccccc2cn1 [Example 7, Isoquinoline-3-carboxylic acid [5-(4-phenyl-piperidin-1-yl)-1H-benzoimidazol-2-yl]-amide] | 1.4
7 | 0.1 | O=C(Nc1nc2cc(OCc3ccc(F)cc3)ccc2[nH]1)c1cc2ccccc2cn1 [Example 4, Isoquinoline-3-carboxylic acid [5-(4-fluoro-benzyloxy)-1H-benzoimidazol-2-yl]-amide] | 0.16
8 | 0.085 | O=C(Nc1nc2cc(OCc3ccccc3)ccc2[nH]1)c1cc2ccccc2cn1 [Example 1, Isoquinoline-3-carboxylic acid (5-benzyloxy-1H-benzoimidazol-2-yl)-amide] | 0.12
9 | 0.16 | COc1cccc(-c2ccc3[nH]c(NC(=O)c4cc5ccccc5cn4)nc3c2)c1 [Example 10, Isoquinoline-3-carboxylic acid [5-(3-methoxy-phenyl)-1H-benzoimidazol-2-yl]-amide] | 1
10 | 0.19 | O=C(Nc1nc2cc(OCCc3ccccc3)ccc2[nH]1)c1cc2ccccc2cn1 [Example 2, Isoquinoline-3-carboxylic acid (5-phenethyloxy-1H-benzoimidazol-2-yl)-amide] | 2
11 | 0.13 | O=C(Nc1nc2cc(NCc3ccccc3)ccc2[nH]1)c1cc2ccccc2cn1 [Example 11, Isoquinoline-3-carboxylic acid (5-benzylamino-1H-benzoimidazol-2-yl)-amide] | 0.6
12 | 0.19 | O=C(Nc1nc2cc(-c3ccccc3)ccc2[nH]1)c1cc2ccccc2cn1 [Example 9, Isoquinoline-3-carboxylic acid (5-phenyl-1H-benzoimidazol-2-yl)-amide] | 1.09
